From patent publication US11272709B2, “Amidine substituted benzoyl derivatives useful as herbicides” (Syngenta Participations AG, priority 2018, dated 2022)

Legend:
Type in all cases: in vivo
Settings in all cases: evaluated after 13 days
[1] = system: Amaranthus retoflexus (AMARE); experiment: Pre-emergence herbicidal glasshouse test, Amaranthus retoflexus (AMARE)
Method: (§1) Seeds of a variety of test species are sown in standard soil in pots (Lolium perenne (LOLPE), Amaranthus retoflexus (AMARE), Abutilon theophrasti (ABUTH), Setaria faberi (SETFA), Echinochloa crus-galli (ECHCG), Ipomoea hederacea (IPOHE)). After cultivation for one day (pre-emergence) or after 8 days cultivation (post-emergence) under controlled conditions in a glasshouse (at 24/16° C., day/night; 14 hours light; 65% humidity), the plants are sprayed with an aqueous spray solution derived from the formulation of the technical active ingredient in acetone/water (50:50) solution containing 0.5% Tween 20 (polyoxyethelyene sorbitan monolaurate, CAS RN 9005-64-5). Compounds are applied at 500 g/h unless otherwise indicated. The test plants are then grown in a glasshouse under controlled conditions in a glasshouse (at 24/16° C., day/night; 14 hours light; 65% humidity) and watered twice daily. After 13 days for pre and post-emergence, the test is evaluated for the percentage damage caused to the plant. The biological activities are shown in the following table on a five point scale (5=80-100%; 4=60-79%; 3=40-59%; 2=20-39%; 1=0-19%).

[2] = system: Abutilon theophrasti (ABUTH); experiment: Pre-emergence herbicidal glasshouse test, Abutilon theophrasti (ABUTH)
Method: as §1

Setaria faberi (SETFA) [3] = experiment: Pre-emergence herbicidal glasshouse test, Setaria faberi (SETFA)
Method: as §1

[4] = system: Echinochloa crus-galli (ECHCG); experiment: Pre-emergence herbicidal glasshouse test, Echinochloa crus-galli (ECHCG)
Method: as §1

[5] = system: Ipomoea hederacea (IPOHE); experiment: Pre-emergence herbicidal glasshouse test, Ipomoea hederacea (IPOHE)
Method: as §1

[6] = system: Amaranthus retoflexus (AMARE); experiment: Post-emergence herbicidal glasshouse test, Amaranthus retoflexus (AMARE)
Method: as §1

[7] = system: Abutilon theophrasti (ABUTH); experiment: Post-emergence herbicidal glasshouse test, Abutilon theophrasti (ABUTH)
Method: as §1

Setaria faberi (SETFA) [8] = experiment: Post-emergence herbicidal glasshouse test, Setaria faberi (SETFA)
Method: as §1

[9] = system: Echinochloa crus-galli (ECHCG); experiment: Post-emergence herbicidal glasshouse test, Echinochloa crus-galli (ECHCG)
Method: as §1

[10] = system: Ipomoea hederacea (IPOHE); experiment: Post-emergence herbicidal glasshouse test, Ipomoea hederacea (IPOHE)
Method: as §1

Row | Compound | PRE Application AMARE, percentage damage (five point scale) ([1]; applied at 250 g/ha) | PRE Application ABUTH, percentage damage (five point scale) ([2]; applied at 250 g/ha) | PRE Application SETFA, percentage damage (five point scale) (Setaria faberi (SETFA) [3]; applied at 250 g/ha) | PRE Application ECHCG, percentage damage (five point scale) ([4]; applied at 250 g/ha) | PRE Application IPOHE, percentage damage (five point scale) ([5]; applied at 250 g/ha) | POST Application AMARE, percentage damage (five point scale) ([6]; applied at 250 g/ha) | POST Application ABUTH, percentage damage (five point scale) ([7]; applied at 250 g/ha) | POST Application SETFA, percentage damage (five point scale) (Setaria faberi (SETFA) [8]; applied at 250 g/ha) | POST Application ECHCG, percentage damage (five point scale) ([9]; applied at 250 g/ha) | POST Application IPOHE, percentage damage (five point scale) ([10]; applied at 250 g/ha) | PRE Application AMARE, percentage damage (five point scale) ([1]; 500 g/h) | PRE Application ABUTH, percentage damage (five point scale) ([2]; 500 g/h) | PRE Application SETFA, percentage damage (five point scale) (Setaria faberi (SETFA) [3]; 500 g/h) | PRE Application ECHCG, percentage damage (five point scale) ([4]; 500 g/h) | PRE Application IPOHE, percentage damage (five point scale) ([5]; 500 g/h) | POST Application AMARE, percentage damage (five point scale) ([6]; 500 g/h) | POST Application ABUTH, percentage damage (five point scale) ([7]; 500 g/h) | POST Application SETFA, percentage damage (five point scale) (Setaria faberi (SETFA) [8]; 500 g/h) | POST Application ECHCG, percentage damage (five point scale) ([9]; 500 g/h) | POST Application IPOHE, percentage damage (five point scale) ([10]; 500 g/h)
1 | CN(C=Nc1c(S(C)(=O)=O)ccc(C(=O)Nc2nnnn2C)c1Cl)CC(F)(F)F [Compound 1.142] | 5 (5=80-100%) | 5 (5=80-100%) | 5 (5=80-100%) | 5 (5=80-100%) | 4 (4=60-79%) | 5 (5=80-100%) | 5 (5=80-100%) | 5 (5=80-100%) | 5 (5=80-100%) | 5 (5=80-100%) |  |  |  |  |  |  |  |  |  | 
2 | Cc1c(C(=O)Nc2nnnn2C)ccc(S(C)(=O)=O)c1N=CN(C)C(C)C [Compound 1.144] |  |  |  |  |  |  |  |  |  |  | 5 (5=80-100%) | 5 (5=80-100%) | 5 (5=80-100%) | 5 (5=80-100%) | 5 (5=80-100%) | 5 (5=80-100%) | 5 (5=80-100%) | 5 (5=80-100%) | 5 (5=80-100%) | 5 (5=80-100%)
3 | CN(C=Nc1c(S(C)(=O)=O)ccc(C(=O)Nc2nnnn2C)c1Cl)c1ccccc1 [Compound 1.145] |  |  |  |  |  |  |  |  |  |  | 5 (5=80-100%) | 5 (5=80-100%) | 5 (5=80-100%) | 5 (5=80-100%) | 4 (4=60-79%) | 4 (4=60-79%) | 3 (3=40-59%) | 5 (5=80-100%) | 5 (5=80-100%) | 4 (4=60-79%)
4 | CC(=Nc1c(C(F)(F)F)ccc(C(=O)Nc2nnnn2C)c1Cl)N(C)C [Compound 1.148] |  |  |  |  |  |  |  |  |  |  | 5 (5=80-100%) | 5 (5=80-100%) | 5 (5=80-100%) | 5 (5=80-100%) | 5 (5=80-100%) | 5 (5=80-100%) | 4 (4=60-79%) | 5 (5=80-100%) | 5 (5=80-100%) | 4 (4=60-79%)
5 | Cc1nnc(NC(=O)c2ccc(C(F)(F)F)c(N=CN(C)C)c2C)o1 [Compound 2.017] |  |  |  |  |  |  |  |  |  |  | 5 (5=80-100%) | 5 (5=80-100%) | 4 (4=60-79%) | 5 (5=80-100%) | 5 (5=80-100%) | 5 (5=80-100%) | 4 (4=60-79%) | 5 (5=80-100%) | 5 (5=80-100%) | 4 (4=60-79%)
6 | Cc1nnc(NC(=O)c2ccc(S(C)(=O)=O)c(N=CN(C)C)c2C)o1 [Compound 2.025] |  |  |  |  |  |  |  |  |  |  | 5 (5=80-100%) | 5 (5=80-100%) | 5 (5=80-100%) | 5 (5=80-100%) | 3 (3=40-59%) | 5 (5=80-100%) | 5 (5=80-100%) | 5 (5=80-100%) | 5 (5=80-100%) | 5 (5=80-100%)
7 | CCN(C)C=Nc1c(S(C)(=O)=O)ccc(C(=O)Nc2nnc(C)o2)c1C [Compound 2.027] |  |  |  |  |  |  |  |  |  |  | 5 (5=80-100%) | 5 (5=80-100%) | 5 (5=80-100%) | 5 (5=80-100%) | 4 (4=60-79%) | 5 (5=80-100%) | 5 (5=80-100%) | 5 (5=80-100%) | 5 (5=80-100%) | 5 (5=80-100%)
8 | CCN(C=Nc1c(S(C)(=O)=O)ccc(C(=O)Nc2nnc(C)o2)c1C)CC [Compound 2.031] |  |  |  |  |  |  |  |  |  |  | 5 (5=80-100%) | 4 (4=60-79%) | 5 (5=80-100%) | 5 (5=80-100%) | 4 (4=60-79%) | 5 (5=80-100%) | 5 (5=80-100%) | 5 (5=80-100%) | 5 (5=80-100%) | 4 (4=60-79%)
9 | Cc1nnc(NC(=O)c2ccc(C(F)(F)F)c(/N=C/N(C)C)c2Cl)o1 [Compound 2.049, 2-chloro-3-[(E)-dimethylaminomethyleneamino]-N-(5-methyl-1,3,4-oxadiazol-2-yl)-4-(trifluoromethyl)benzamide] |  |  |  |  |  |  |  |  |  |  | 5 (5=80-100%) | 5 (5=80-100%) | 5 (5=80-100%) | 5 (5=80-100%) | 5 (5=80-100%) | 5 (5=80-100%) | 5 (5=80-100%) | 5 (5=80-100%) | 5 (5=80-100%) | 5 (5=80-100%)
10 | CCN(C=Nc1c(C(F)(F)F)ccc(C(=O)Nc2nnc(C)o2)c1Cl)CC [Compound 2.055] |  |  |  |  |  |  |  |  |  |  | 5 (5=80-100%) | 5 (5=80-100%) | 5 (5=80-100%) | 5 (5=80-100%) | 5 (5=80-100%) | 5 (5=80-100%) | 4 (4=60-79%) | 5 (5=80-100%) | 5 (5=80-100%) | 4 (4=60-79%)
